Results taken from US12622902B2, “Anti-arrhythmic pharmaceutical composition and preparation method therefor” (JIANGSU KANION PHARMACEUTICAL CO., LTD., priority 2020, dated 2026).

Legend:
[1] = Study of compositions of compound A and its salt under moisture and heat; type: physicochemical; conditions: condition of moisture and heat
Source text: Accordingly, the present application provides an anti-arrhythmic pharmaceutical composition with high stability and rapid dissolution, and a preparation method thereof.

[2] = tested on: ventricular tachycardia and ventricular fibrillation; conditions: cited from earlier work

In the case of `COc1cc2c(cc1OCc1ccccc1)C(Cc1cccc(NS(C)(=O)=O)c1)NCC2` (stereo not drawn) [compound A, 1-(3-methanesulfonamidobenzyl)-6-methoxy, 7-benzyloxy-1,2,3,4-tetrahydroisoquinoline], the “stability of the drug in a pharmaceutical composition” value [1] is given as “decomposed”, the “effect on ventricular tachycardia and ventricular fibrillation” value [2] is given as “effective” and the action potential duration ([2]; class III anti-arrhythmic drug) is given as “can prolong”.
